Key:
[1] = Drug uptake in Wistar rat brain at 10 mg/kg, po after 24 hrs; assay type: ADME, organism-based; design: dose 10 mg/kg, route oral; conditions: read-out: Drug uptake
[2] = Drug uptake in Wistar rat brain at 10 mg/kg, po after 6 hrs; assay type: ADME, organism-based; design: dose 10 mg/kg, route oral; conditions: read-out: Drug uptake
[3] = Drug uptake in Wistar rat brain at 10 mg/kg, po after 2 hrs; assay type: ADME, organism-based; design: dose 10 mg/kg, route oral; conditions: read-out: Drug uptake
[4] = Plasma concentration in Wistar rat at 10 mg/kg, po after 2 hrs; assay type: ADME, organism-based; design: dose 10 mg/kg, route oral
[5] = Plasma concentration in Wistar rat at 10 mg/kg, po after 24 hrs; assay type: ADME, organism-based; design: dose 10 mg/kg, route oral
[6] = Plasma concentration in Wistar rat at 10 mg/kg, po after 6 hrs; assay type: ADME, organism-based; design: dose 10 mg/kg, route oral
[7] = Volume of distribution at steady state in Wistar rat at 0.5 mg/kg, iv by LC-MS/MS analysis; assay type: ADME, organism-based; design: dose 0.5 mg/kg, route intravenous; conditions: in vivo, read-out: Vdss
[8] = AUC (0 to infinity) in Wistar rat at 0.5 mg/kg, iv by LC-MS/MS analysis; assay type: ADME, organism-based; design: time infinity, dose 0.5 mg/kg, route intravenous; conditions: plasma
[9] = Oral bioavailability in Wistar rat at 10 mg/kg by LC-MS/MS analysis; assay type: ADME, organism-based; conditions: in vivo
[10] = AUC (0 to 24 hrs) in Wistar rat at 10 mg/kg, po by LC-MS/MS analysis; assay type: ADME, organism-based; design: time < 24 hr, dose 10 mg/kg, route oral; conditions: plasma
[11] = Tmax in Wistar rat at 10 mg/kg, po by LC-MS/MS analysis; assay type: ADME, organism-based; design: dose 10 mg/kg, route oral; conditions: in vivo
[12] = Cmax in Wistar rat at 10 mg/kg, po by LC-MS/MS analysis; assay type: ADME, organism-based; design: dose 10 mg/kg, route oral; conditions: in vivo
[13] = Plasma concentration in Wistar rat at 10 mg/kg, po after 3 hrs; assay type: ADME, organism-based; design: dose 10 mg/kg, route oral
[14] = Oral bioavailability in Wistar rat at 1 mg/kg by LC-MS/MS analysis; assay type: ADME, organism-based; conditions: in vivo
[15] = AUC (0 to 24 hrs) in Wistar rat at 1 mg/kg, po by LC-MS/MS analysis; assay type: ADME, organism-based; design: time < 24 hr, dose 1 mg/kg, route oral; conditions: plasma
[16] = Tmax in Wistar rat at 1 mg/kg, po by LC-MS/MS analysis; assay type: ADME, organism-based; design: dose 1 mg/kg, route oral; conditions: in vivo
[17] = Cmax in Wistar rat at 1 mg/kg, po by LC-MS/MS analysis; assay type: ADME, organism-based; design: dose 1 mg/kg, route oral; conditions: in vivo
[18] = Tmax in Wistar rat brain at 10 mg/kg, po; assay type: ADME, organism-based; design: dose 10 mg/kg, route oral
[19] = Tmax in Wistar rat plasma at 10 mg/kg, po; assay type: ADME, organism-based; design: dose 10 mg/kg, route oral
[20] = Volume of distribution at steady state in cynomolgus monkey at 1 mg/kg, iv by LC-MS/MS analysis; assay type: ADME, organism-based, Macaca fascicularis; design: dose 1 mg/kg, route intravenous; conditions: in vivo, read-out: Vdss
[21] = AUC (0 to infinity) in cynomolgus monkey at 1 mg/kg, iv by LC-MS/MS analysis; assay type: ADME, organism-based, Macaca fascicularis; design: time infinity, dose 1 mg/kg, route intravenous; conditions: plasma
[22] = Volume of distribution at steady state in Beagle dog at 1 mg/kg, iv by LC-MS/MS analysis; assay type: ADME, organism-based, Canis lupus familiaris; design: dose 1 mg/kg, route intravenous; conditions: in vivo, read-out: Vdss
[23] = AUC (0 to infinity) in Beagle dog at 1 mg/kg, iv by LC-MS/MS analysis; assay type: ADME, organism-based, Canis lupus familiaris; design: time infinity, dose 1 mg/kg, route intravenous; conditions: plasma
[24] = Volume of distribution at steady state in Wistar rat at 1 mg/kg, iv by LC-MS/MS analysis; assay type: ADME, organism-based; design: dose 1 mg/kg, route intravenous; conditions: in vivo, read-out: Vdss
[25] = AUC (0 to infinity) in Wistar rat at 1 mg/kg, iv by LC-MS/MS analysis; assay type: ADME, organism-based; design: time infinity, dose 1 mg/kg, route intravenous; conditions: plasma
[26] = Oral bioavailability in cynomolgus monkey at 1 mg/kg by LC-MS/MS analysis; assay type: ADME, organism-based, Macaca fascicularis; conditions: in vivo
[27] = AUC (0 to 24 hrs) in cynomolgus monkey at 1 mg/kg, po by LC-MS/MS analysis; assay type: ADME, organism-based, Macaca fascicularis; design: time < 24 hr, dose 1 mg/kg, route oral; conditions: plasma
[28] = Oral bioavailability in Beagle dog at 3 mg/kg by LC-MS/MS analysis; assay type: ADME, organism-based, Canis lupus familiaris; conditions: in vivo
[29] = AUC (0 to 24 hrs) in Beagle dog at 3 mg/kg, po by LC-MS/MS analysis; assay type: ADME, organism-based, Canis lupus familiaris; design: time < 24 hr, dose 3 mg/kg, route oral; conditions: plasma
[30] = Tmax in Beagle dog at 3 mg/kg, po by LC-MS/MS analysis; assay type: ADME, organism-based, Canis lupus familiaris; design: dose 3 mg/kg, route oral; conditions: in vivo
[31] = Cmax in Beagle dog at 3 mg/kg, po by LC-MS/MS analysis; assay type: ADME, organism-based, Canis lupus familiaris; design: dose 3 mg/kg, route oral; conditions: in vivo
[32] = AUC (0 to 32 hrs) in Wistar rat at 10 mg/kg, po by LC-MS/MS analysis; assay type: ADME, organism-based; design: time < 32 hr, dose 10 mg/kg, route oral; conditions: plasma
[33] = Cmax in cynomolgus monkey at 1 mg/kg, po by LC-MS/MS analysis; assay type: ADME, organism-based, Macaca fascicularis; design: dose 1 mg/kg, route oral; conditions: in vivo
[34] = Tmax in cynomolgus monkey at 1 mg/kg, po by LC-MS/MS analysis; assay type: ADME, organism-based, Macaca fascicularis; design: dose 1 mg/kg, route oral; conditions: in vivo

| SMILES | concentration at 24 h [1] | concentration at 6 h [2] | concentration at 2 h [3] | concentration at 2 h [4] | concentration at 24 h [5] | concentration at 6 h [6] | further results |
| --- | --- | --- | --- | --- | --- | --- | --- |
| CCc1cc(-c2noc(-c3cc(C)nc(N(CC)CC)c3)n2)cc(C)c1OC[C@@H](O)CO | 34 ng/mL | 271 ng/mL | 435 ng/mL | 608 ng/mL | 22 ng/mL | 254 ng/mL | – |
| CCc1cc(-c2noc(-c3cc(C)nc(C(CC)CC)c3)n2)cc(C)c1OC[C@@H](O)CNC(=O)CO | – | – | – | – | – | – | Vd [7]: 3.4 L/kg; AUC(0-inf) [8]: 69.9 ng·h/mL; bioavailability [9]: 126%; AUC(0-t) at 24 h [10]: 1760 ng·h/mL; Tmax [11]: 0.5 h; Cmax [12]: 804 ng/mL |
| CCc1cc(-c2noc(-c3cc(C4CCCC4)cc(C)n3)n2)cc(C)c1OC[C@@H](O)CNC(=O)CO | – | – | – | – | 9 nM | 1070 nM | concentration at 3 h [13]: 1890 nM |
| CCc1cc(-c2noc(-c3cc(C)nc(C4CCCC4)c3)n2)cc(C)c1OC[C@@H](O)CNC(=O)CO | – | – | – | – | – | – | Vd [7]: 7.3 L/kg; AUC(0-inf) [8]: 566 ng·h/mL; bioavailability [14]: 39%; AUC(0-t) at 24 h [15]: 436 ng·h/mL; Tmax [16]: 3 h; Cmax [17]: 49 ng/mL |
| CCc1cc(-c2noc(-c3cc(C)nc(N(CC)CC)c3)n2)cc(C)c1OC[C@@H](O)CNC(=O)CO | 487 ng/mL | 653 ng/mL | 269 ng/mL | 2170 ng/mL | 412 ng/mL | 1780 ng/mL | Tmax [18]: 6 h; Tmax [19]: 2 h; Vd [20]: 1.1 L/kg; AUC(0-inf) [21]: 5450 ng·h/mL; Vd [22]: 1.2 L/kg; AUC(0-inf) [23]: 3350 ng·h/mL; Vd [24]: 3.5 L/kg; AUC(0-inf) [25]: 3200 ng·h/mL; bioavailability [26]: 16%; AUC(0-t) at 24 h [27]: 866 ng·h/mL; bioavailability [28]: 32%; AUC(0-t) at 24 h [29]: 3250 ng·h/mL; Tmax [30]: 1 h; Cmax [31]: 546 ng/mL; AUC(0-t) at 32 h [32]: 16500 ng·h/mL; bioavailability [9]: 52%; Tmax [11]: 2 h; Cmax [12]: 1090 ng/mL; Cmax [33]: 97 ng/mL; Tmax [34]: 2 h |
| CCc1cc(-c2nnc(-c3cc(C)nc(N(CC)CC)c3)o2)cc(C)c1OC[C@@H](O)CNC(=O)CO | 3 ng/mL | 52 ng/mL | 46 ng/mL | 815 ng/mL | 8 ng/mL | 510 ng/mL | – |
| CCc1cc(-c2nc(-c3cc(C)nc(N(CC)CC)c3)no2)cc(C)c1OC[C@@H](O)CNC(=O)CO | 301 ng/mL | 369 ng/mL | 140 ng/mL | 875 ng/mL | 230 ng/mL | 918 ng/mL | – |
| CCc1cc(-c2nnc(-c3cc(C)nc(N(CC)CC)c3)o2)cc(C)c1OC[C@@H](O)CO | 2 ng/mL | 215 ng/mL | 600 ng/mL | 820 ng/mL | 4 ng/mL | 315 ng/mL | – |
| CCc1cc(-c2noc(-c3cc(C)c(C4CCCC4)cn3)n2)cc(C)c1OC[C@@H](O)CNC(=O)CO | – | – | – | – | 800 nM | 3690 nM | concentration at 3 h [13]: 4910 nM |
